In PMC6277434, “Discovery of a potent HMG-CoA reductase degrader that eliminates statin-induced reductase accumulation and lowers cholesterol” (Nature Communications, 2018):
Like-named read-outs stand apart in the source and are kept apart here.

Tests used:
[1] = target: T1, HMGCR (TM1-8)-GFP (Cricetulus griseus, UniProt P00347)
T1 sequence (P00347 1-346): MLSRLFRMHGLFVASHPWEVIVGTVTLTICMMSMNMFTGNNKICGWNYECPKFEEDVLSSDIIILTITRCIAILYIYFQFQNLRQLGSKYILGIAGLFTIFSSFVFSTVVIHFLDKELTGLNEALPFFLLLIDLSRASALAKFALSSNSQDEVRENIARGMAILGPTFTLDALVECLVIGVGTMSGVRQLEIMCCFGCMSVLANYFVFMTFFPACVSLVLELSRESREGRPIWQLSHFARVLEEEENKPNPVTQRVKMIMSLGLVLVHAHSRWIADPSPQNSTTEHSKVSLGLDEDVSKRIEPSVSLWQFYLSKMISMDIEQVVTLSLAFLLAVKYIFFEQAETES

[2] = target: T1, HMGCR (TM1-8)-GFP; assay: HMGCR (TM1-8)-GFP fluorescent assay (high-content imaging) in CHG cells; settings: for effect on HMGCR (TM1-8)-GFP intensity: CHG cells
[3] = 16 h, read-out: HMGCR (TM1-8)-GFP fluorescent intensity, mean
[4] = read-out: Mean (HMGCR (TM1-8)-GFP signal relative to 0 μM = 100)

Row | SMILES | DC50 [1] [µM] | remaining activity at 0.01 µM [2, 3] [%] | remaining activity at 0.1 µM [2, 3] [%] | remaining activity at 0.3 µM [2, 3] [%] | remaining activity at 1 µM [2, 3] [%] | remaining activity at 3 µM [2, 3] [%] | remaining activity at 10 µM [2, 3] [%] | remaining activity at 20 µM [2, 3] [%] | remaining activity at 30 µM [2, 3] [%] | effect on HMGCR (TM1-8)-GFP intensity ([2]; 16 h) | remaining activity at 0.03 µM [2, 3] [%] | remaining activity at 0.156 µM [2, 4] [%] | remaining activity at 0.313 µM [2, 4] [%] | remaining activity at 0.625 µM [2, 4] [%] | remaining activity at 1.25 µM [2, 4] [%] | remaining activity at 2.5 µM [2, 4] [%] | remaining activity at 5 µM [2, 4] [%] | remaining activity at 10 µM [2, 4] [%]
1 | CC(C)CCC[C@@H](C)[C@H]1CC[C@H]2[C@@H]3CC=C4C(C)(C)[C@@H](O)CC[C@]4(C)[C@H]3CC[C@]12C [Compound 7, 4,4-Dimethyl cholesterol] | 14.6 | 101 | 104 | 92.8 | 83.5 | 71.9 | 56.7 | 47.9 | 35.9 | – | – | – | – | – | – | – | – | –
2 | CCC1(CC)C2=CCC3C(CC[C@@]4(C)C3CC[C@@H]4[C@H](C)CCCC(C)C)[C@@]2(C)CC[C@@H]1O (stereo partly drawn) [Compound 8] | – | – | 90.5 | 79.5 | 82.7 | 83.2 | 89.3 | 91.4 | 93.9 | did not decrease the HMGCR (TM1-8)-GFP intensity | – | – | – | – | – | – | – | –
3 | C=CCC1(CC=C)C2=CCC3C(CC[C@@]4(C)C3CC[C@@H]4[C@H](C)CCCC(C)C)[C@@]2(C)CC[C@@H]1O (stereo partly drawn) [Compound 9] | – | – | 95.3 | 92.7 | 80.9 | 90.8 | 93.7 | 88.7 | 90.8 | did not decrease the HMGCR (TM1-8)-GFP intensity | – | – | – | – | – | – | – | –
4 | CC(C)CCC[C@@H](C)[C@H]1CCC2C3CC=C4C5(CCCCC5)[C@@H](O)CC[C@]4(C)C3CC[C@@]21C (stereo partly drawn) [Compound 10] | – | – | 100 | 106 | 92.7 | 102 | 103 | 98.6 | 101 | did not decrease the HMGCR (TM1-8)-GFP intensity | – | – | – | – | – | – | – | –
5 | CCC1(CCOC)C2=CCC3C(CCC4(C)C(C(C)CCCC(C)C)CCC34)C2(C)CCC1O (stereo not drawn) [Compound 11] | – | – | 90.8 | 97.1 | 100 | 91.7 | 93.3 | 97.4 | 95.4 | did not decrease the HMGCR (TM1-8)-GFP intensity | – | – | – | – | – | – | – | –
6 | COCCC1(CCOC)C2=CCC3C(CC[C@@]4(C)C3CC[C@@H]4[C@H](C)CCCC(C)C)[C@@]2(C)CC[C@@H]1O (stereo partly drawn) [Compound 14] | – | – | 90.2 | 107 | 99.6 | 93.4 | 99.4 | 106 | 98.6 | did not decrease the HMGCR (TM1-8)-GFP intensity | – | – | – | – | – | – | – | –
7 | CC(C)CCC[C@@H](C)[C@H]1CCC2C3C(CC[C@@]21C)[C@@]1(C)CC[C@H](O)C(C)(C)C1=C[C@H]3N=[N+]=[N-] (stereo partly drawn) [Compound 18] | – | – | 99.5 | 103 | 103 | 99.4 | 96.7 | 98.8 | 93 | – | – | – | – | – | – | – | – | –
8 | CC(C)CCC[C@@H](C)[C@H]1CCC2C3C(CC[C@@]21C)[C@@]1(C)CC[C@H](O)C(C)(C)C1=C[C@H]3N (stereo partly drawn) [Compound 19] | – | – | 90.2 | 107 | 99.6 | 93.4 | 99.4 | 106 | 99.6 | – | – | – | – | – | – | – | – | –
9 | CC(=O)N[C@@H]1C=C2C(C)(C)[C@@H](O)CC[C@]2(C)C2CC[C@@]3(C)C(CC[C@@H]3[C@H](C)CCCC(C)C)C21 (stereo partly drawn) [Compound 22] | – | – | 97.3 | 91.4 | 89.7 | 101 | 97.5 | 97.9 | 93.5 | – | – | – | – | – | – | – | – | –
10 | CC(C)CCC[C@@H](C)[C@H]1CCC2C3C(=O)C=C4C(C)(C)[C@@H](O)CC[C@]4(C)C3CC[C@@]21C (stereo partly drawn) [Compound 33] | – | – | 93 | 97.3 | 94.4 | 96.3 | 95.2 | 85 | – | – | – | – | – | – | – | – | – | –
11 | CC(C)CCC[C@@H](C)[C@H]1CCC2C3C(=NO)C=C4C(C)(C)[C@@H](O)CC[C@]4(C)C3CC[C@@]21C (stereo partly drawn) [Compound 34] | 60.8 | – | 103 | 93.6 | 75.2 | 65.6 | 62 | 65.8 | 62.1 | – | 99.1 | – | – | – | – | – | – | –
12 | CC(C)CCC[C@@H](C)[C@H]1CC[C@H]2[C@@H]3[C@@H](O)C=C4C(C)(C)[C@@H](O)CC[C@]4(C)[C@H]3CC[C@]12C [Compound 35, 4,4-Dimethyl 7β-hydroxyl cholesterol] | 3.6 | 100 | 87.1 | 83.8 | 68.2 | 54.5 | 37 | 20 | – | – | 104 | – | – | – | – | – | – | –
13 | CC(C)CCC[C@@H](C)[C@H]1CCC2C3C(CC[C@@]21C)[C@@]1(C)CC[C@H](O)C(C)(C)C1=C[C@H]3O (stereo partly drawn) [Compound 36] | 11.9 | 106 | 108 | 91.3 | 93.6 | 69.8 | 58.6 | 37.2 | – | – | 91.7 | – | – | – | – | – | – | –
14 | COC(=O)CC[C@@H](C)C1CCC2C3C(CC[C@@]21C)[C@@]1(C)CC[C@H](O)C(C)(C)C1=C[C@@H]3O (stereo partly drawn) [Compound 49] | 6.67 | – | – | – | – | – | – | – | – | – | – | 93 | 100 | 100 | 93 | 78.9 | 58.3 | 37.6
15 | C[C@H](CCC(=O)O)C1CCC2C3C(CC[C@@]21C)[C@@]1(C)CC[C@H](O)C(C)(C)C1=C[C@@H]3O (stereo partly drawn) [Compound 50] | – | – | – | – | – | – | – | – | – | – | – | 98.8 | 106 | 105 | 105 | 103 | 100 | 98.3
16 | C[C@H](CCCO)C1CCC2C3C(CC[C@@]21C)[C@@]1(C)CC[C@H](O)C(C)(C)C1=C[C@@H]3O (stereo partly drawn) [Compound 51] | 9.08 | – | – | – | – | – | – | – | – | – | – | 98.3 | 102 | 101 | 92.8 | 82.2 | 67.8 | 47.7
17 | COCCC[C@@H](C)C1CCC2C3C(CC[C@@]21C)[C@@]1(C)CC[C@H](O)C(C)(C)C1=C[C@@H]3O (stereo partly drawn) [Compound 55] | 2.29 | – | – | – | – | – | – | – | – | – | – | 100 | 100 | 83 | 63.8 | 43.1 | 28.5 | 21.9
18 | C[C@H](CCC(C)(C)O)C1CCC2C3C(CC[C@@]21C)[C@@]1(C)CC[C@H](O)C(C)(C)C1=C[C@@H]3O (stereo partly drawn) [Compound 56] | 52.1 | – | – | – | – | – | – | – | – | – | – | 88.3 | 94.2 | 92.2 | 79.4 | 78.7 | 72.2 | 69.4
19 | CCC(O)(CC)CC[C@@H](C)C1CCC2C3C(CC[C@@]21C)[C@@]1(C)CC[C@H](O)C(C)(C)C1=C[C@@H]3O (stereo partly drawn) [Compound 57] | 1.75 | – | – | – | – | – | – | – | – | – | – | 96.7 | 90.2 | 75.6 | 53.1 | 36.2 | 26 | 23.7
20 | C=CCC(O)(CC=C)CC[C@@H](C)C1CCC2C3C(CC[C@@]21C)[C@@]1(C)CC[C@H](O)C(C)(C)C1=C[C@@H]3O (stereo partly drawn) [Compound 58] | 4.5 | – | – | – | – | – | – | – | – | – | – | 106 | 110 | 104 | 92.1 | 68.2 | 43.8 | 25.3
21 | CC(O)CC[C@@H](C)C1CCC2C3C(CC[C@@]21C)[C@@]1(C)CC[C@H](O)C(C)(C)C1=C[C@@H]3O (stereo partly drawn) [Compound 63] | 2.96 | – | – | – | – | – | – | – | – | – | – | 100 | 97.9 | 86.9 | 73.2 | 50.1 | 37.4 | 21
22 | COCCCCC[C@@H](C)C1CCC2C3C(CC[C@@]21C)[C@@]1(C)CC[C@H](O)C(C)(C)C1=C[C@@H]3O (stereo partly drawn) [Compound 95] | 2.34 | – | – | – | – | – | – | – | – | – | – | – | – | – | – | – | – | –
23 | C[C@H](CCCCCO)C1CCC2C3C(CC[C@@]21C)[C@@]1(C)CC[C@H](O)C(C)(C)C1=C[C@@H]3O (stereo partly drawn) [Compound 96] | 2.96 | – | – | – | – | – | – | – | – | – | – | – | – | – | – | – | – | –
